Assays:
[1] = Gentamicin release study, parallel release reactions in PBS buffer; assay type: physicochemical; conditions: FIG. 2A; 6.0 mg solid in 1.50 mL PBS, 37° C., pH 7.4
Description: Gentamicin and vancomycin loading and release are presented for a homopolymer system where the antibiotic gentamicin or vancomycin is bound to hydroxyapatite (HA) using commercially available poly-L-glutamate. This corresponds to the schematic illustrated in FIG. 1A. The experiment consisted of producing gentamicin or vancomycin adsorbed on poly-L-glutamate coated hydroxyapatite, and measuring the drug's rate of release into phosphate-buffered saline at 20° C. or 37° C. and pH 7.4, relative to a drug/hydroxyapatite control without the polymer. Gentamicin release study—Parallel release reactions: Gentamicin release rates from the experimental sample (G/pgHA) and control (G/HA) were measured by running multiple release reactions of each in parallel and stopping the reactions at different times. In each release sample 6.0 mg of solid was mixed in 1.50 mL of PBS buffer in an Eppendorf tube in a 37° C. shaker bath. Samples were removed from the bath at 15 minute intervals, centrifuged for 30 seconds, and the supernatant saved for later analysis.

staphylococci = conditions: literature value (de Neeling et al., 1998); cited from earlier work

Substance: gentamicin
- time for adsorbed gentamicin to reach equilibrium with the buffer [1]: within one hour
- minimum inhibitory concentration required to kill staphylococci (staphylococci): 4 µg/mL
